The target in series [1] is T1, Thymidine kinase (Macacine herpesvirus 1) (UniProt A3RLP8).
T1 sequence (whole entry): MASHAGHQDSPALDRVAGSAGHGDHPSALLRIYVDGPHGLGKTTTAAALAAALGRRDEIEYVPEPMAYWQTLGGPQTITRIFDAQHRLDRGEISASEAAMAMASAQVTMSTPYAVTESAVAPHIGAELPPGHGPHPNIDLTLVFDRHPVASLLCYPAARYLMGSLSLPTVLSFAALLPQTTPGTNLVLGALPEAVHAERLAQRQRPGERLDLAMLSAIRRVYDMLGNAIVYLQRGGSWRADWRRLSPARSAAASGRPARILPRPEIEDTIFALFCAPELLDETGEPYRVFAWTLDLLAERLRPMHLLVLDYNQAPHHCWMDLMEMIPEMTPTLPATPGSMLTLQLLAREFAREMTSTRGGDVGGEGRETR
Nature of the series: Activity of Herpes B virus recombinant thymidine kinase at 100 uM. The following applies: Macacine alphaherpesvirus 1.

For series [2], the target named is T1, Thymidine kinase (Macacine herpesvirus 1). Nature of the series: Activity of Herpes B virus recombinant thymidine kinase at 1 mM. The following applies: Macacine alphaherpesvirus 1.
Series [3] deals with Macacine alphaherpesvirus 1. Nature of the series: microbe, parasite or virus in culture. The settings on record: Macacine alphaherpesvirus 1, Vero. Type of series: functional, organism-based.
The test system of series [4] is Macacine alphaherpesvirus 1. Nature of the series: microbe, parasite or virus in culture. Type of series: functional, organism-based. The following applies: Macacine alphaherpesvirus 1, Vero. This is another data set of the same source.
Another series relates to Human alphaherpesvirus 1. Nature of the series: microbe, parasite or virus in culture. The following applies: Human alphaherpesvirus 1, F, Vero. Type of series: functional, organism-based.
Series [5] in a line: Cytotoxicity against african green monkey Vero cells after 2 days. Type of series: cell-based. The following applies: chlorocebus sabaeus.
For a further series, the target named is T2, Thymidine kinase (Macacine herpesvirus 1, UniProt A3RLP8).
T2 sequence (A3RLP8 whole entry): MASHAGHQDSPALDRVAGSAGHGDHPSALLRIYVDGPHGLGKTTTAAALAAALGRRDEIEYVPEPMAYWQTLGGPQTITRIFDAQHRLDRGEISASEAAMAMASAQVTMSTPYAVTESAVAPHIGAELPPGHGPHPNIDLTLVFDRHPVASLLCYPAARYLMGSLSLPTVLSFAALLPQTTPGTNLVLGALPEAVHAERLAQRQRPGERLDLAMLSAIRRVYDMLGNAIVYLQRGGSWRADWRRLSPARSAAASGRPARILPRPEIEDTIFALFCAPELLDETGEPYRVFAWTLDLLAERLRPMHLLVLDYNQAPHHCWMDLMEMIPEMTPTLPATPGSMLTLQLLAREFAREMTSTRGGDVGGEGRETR

Series [6] concerns Macacine alphaherpesvirus 1. As to the kind of experiment: microbe, parasite or virus in culture. Type of series: functional, organism-based. The settings on record: Macacine alphaherpesvirus 1, Vero. This is another data set of the same source.
Series [7] has as its target T1, Thymidine kinase (Macacine herpesvirus 1). The settings on record: Macacine alphaherpesvirus 1; 100 uM.
Substrate in series [8]: Cc1cn([C@H]2C[C@H](O)[C@@H](CO)O2)c(=O)[nH]c1=O
The settings on record: Human alphaherpesvirus 1.

Substrate in series [9]: Cc1cn([C@H]2C[C@H](O)[C@@H](CO)O2)c(=O)[nH]c1=O
As to the kind of experiment: (§1) Activity of Herpes B virus recombinant thymidine kinase. The settings on record: Macacine alphaherpesvirus 1.

Substrate in series [10]: O=c1[nH]c(Nc2ccccc2)nc2c1ncn2CCCCO
The description is as §1. The following applies: Macacine alphaherpesvirus 1.

Where “and” joins values, the source holds several entries; their conditions need not be identical. Equal entries are not always repeated. Calls of active or inactive are those of the source. No cut-off for these calls is given here.

In general, EC50 refers to the concentration at which the effect is half-maximal. By CC50 is commonly meant the concentration at which the toxic effect on the cells reaches its halfway point. The IC50 is the concentration at which inhibition is half-maximal. One may read the Km as the substrate concentration at which the rate is half of its maximum.

In the case of `Nc1ccn(C[C@@H](CO)OCP(=O)(O)O)c(=O)n1` [CIDOFOVIR], the outcome in [1] and in series [2] was inactive. In addition, the EC50 in series [3] amounted to 28.9 µM; in series [4], 21.6 µM; in the series on Human alphaherpesvirus 1, 14.4 µM. Moreover, the CC50 at 48 h in series [5] was greater than 720 µM. This molecule also returned an IC50 on Thymidine kinase of 900 µM.

With `Nc1nc2c(ncn2COCCO)c(=O)[nH]1` [ACYCLOVIR], the result in series [1] and in series [2] was inactive. The EC50 amounted to 112 µM in series [3], 118 µM in series [4], 47.5 µM in [6] and 1.4 µM with Human alphaherpesvirus 1. The 50% cytotoxic concentration (CC50) at 48 h in series [5] is greater than 890 µM.

Take `O=c1[nH]c(=O)n([C@H]2C[C@H](O)[C@@H](CO)O2)cc1C(F)(F)F` [TRIFLURIDINE]: the Activity in series [1] is 55%. In addition, the EC50 in [3] is 1.7 µM; in series [4] it was 3.4 µM; in the series with Human alphaherpesvirus 1, less than 1.7 µM. In series [5], this molecule registered a CC50 at 48 h of 50.6 µM. Besides, the IC50 against Thymidine kinase was 2 µM.

In the case of `Nc1nc2c(ncn2COC(CO)CO)c(=O)[nH]1` [GANCICLOVIR], the outcome in series [1] and in series [2] was inactive. Further, the EC50 was determined as 14.5 µM in series [3], 23.5 µM in series [4], 19.2 µM in series [6] and 0.7 µM with Human alphaherpesvirus 1.

With `O=c1[nH]c(=O)n([C@H]2C[C@H](O)[C@@H](CO)O2)cc1/C=C/Br` [BRIVUDINE], the result in series [1] and in series [2] was inactive. Also, the EC50 was greater than 300 µM in [3], greater than 300 µM in series [4] and 0.12 µM in the series on Human alphaherpesvirus 1. The same molecule yielded a CC50 at 48 h in [5] greater than 600 µM.

Turning to `O=c1[nH]c(Nc2cccc(C(F)(F)F)c2)nc2nc[nH]c12`, half-maximal inhibition at Thymidine kinase (IC50) required 3.5 µM.

Regarding `CN(C)CCCCn1cnc2c(O)nc(Nc3ccccc3)nc21`, the IC50 at Thymidine kinase came out at 1.2 µM.

In turn, `CCc1cn([C@@H]2C[C@H](O)[C@@H](CO)O2)c(=O)[nH]c1=O` gave an IC50 at Thymidine kinase of 52 µM.

For the molecule `O=c1[nH]c(=O)n([C@H]2C[C@H](O)[C@@H](CO)O2)cc1I` [IDOXURIDINE], in series [1], the Activity was 58%. Further, the EC50 in series [3] stood at 11.2 µM; in series [4], 8.5 µM; in the series with Human alphaherpesvirus 1, 2.8 µM. Moreover, in [5], the CC50 at 48 h came to 6.8 µM.

With `Cc1cc(=O)[nH]c(=O)n1[C@@H]1O[C@H](CO)[C@@H](O)[C@H]1O`, the result in series [7] was inactive.

Turning to `CCc1cn([C@H]2C[C@H](O)[C@@H](CO)O2)c(=O)[nH]c1=O` [EDOXUDINE], the Activity in series [1] worked out at 82%. The EC50 came out at 37.4 µM in series [3], 48 µM in series [4], 13.3 µM in series [6] and 2.1 µM with Human alphaherpesvirus 1. The molecule further returned a CC50 at 48 h in series [5] greater than 780 µM. Also, at Thymidine kinase, the IC50 came out at 0.15 µM.

With `O=c1[nH]c(Nc2ccccc2)nc2c1ncn2CCCCO`, the Activity in [1] turned out to be 200%. Further, the EC50 was greater than 330 µM in series [3], greater than 330 µM in series [4] and 330 µM with Human alphaherpesvirus 1. Besides, the CC50 at 48 h in [5] is greater than 660 µM.

As for `CCCc1cn([C@H]2C[C@H](O)[C@@H](CO)O2)c(=O)[nH]c1=O`, the Activity in series [1] amounted to 31%. This molecule also came in with an IC50 against Thymidine kinase of 4.2 µM.

Regarding `Nc1nc2c(ncn2CCCCO)c(=O)[nH]1`, in [1], the Activity is 94%. The molecule further gave an IC50 at Thymidine kinase of 177 µM.

Consider `O=C(O)P(=O)(O)O` [FOSCARNET], for which the EC50 is greater than 500 µM in [3], 250 µM in [4] and 250 µM in the series on Human alphaherpesvirus 1. This molecule yielded a CC50 at 48 h in series [5] greater than 1 µM.

`Cc1cn([C@H]2C[C@H](O)[C@@H](CO)O2)c(=O)[nH]c1=O` (stereo in doubt; form 2): the Activity in series [1] was found to be 100%.

Consider `Nc1nc(O)c2ncn(COC(CO)CO)c2n1` [GANCICLOVIR], for which, in series [5], the CC50 at 48 h was 666 µM. This molecule also displayed an IC50 at Thymidine kinase of 800 µM.

Turning to `O=c1ccn([C@@H]2O[C@H](CO)[C@H](O)[C@@H]2O)c(=O)[nH]1`, in [7], the result was inactive.

For `Nc1ncnc2c1ncn2[C@@H]1O[C@H](CO)[C@@H](O)[C@@H]1O` [VIDARABINE], in [7], the result was inactive. In addition, the EC50 in [3] was 28 µM; in series [4], 35 µM; in the series on Human alphaherpesvirus 1 it was 7 µM. In series [5], this molecule gave a cytotoxic concentration (CC50) at 48 h of 38 µM.

Take `Nc1nc(O)c2ncn(CCC(CO)CO)c2n1` [PENCICLOVIR]: in series [1], the Activity was found to be 72%. The EC50 in series [3] was 17 µM; in [4] it was 25.3 µM; in series [6], 17.3 µM; in the series with Human alphaherpesvirus 1, 4.7 µM.

For `O=c1[nH]c(=O)n(C2C[C@H](O)[C@@H](CO)O2)cc1I` (single isomer, unassigned), in [1], the Activity is 94%.

In the case of `Cc1cn([C@H]2C[C@H](O)[C@@H](CO)O2)c(=O)[nH]c1=O` (stereo in doubt; form 1), in series [1], the Activity is 130%.

For `Nc1nc2c(ncn2CCC(CO)CO)c(=O)[nH]1` [PENCICLOVIR], the CC50 at 48 h in [5] was greater than 790 µM. At Thymidine kinase, this molecule displayed an IC50 of 84.4 µM.

On to `O=c1[nH]c(=O)n(C2C[C@H](O)[C@@H](CO)O2)cc1/C=C/Br` (single isomer, unassigned), for which the outcome in series [1] and in [2] was inactive.

B1: Thymidine kinase (Human alphaherpesvirus 1), Q9QNF7 (protein)
chain: MASYPCHQHASAFDQAARSRGHSNRRTALRPRRQQEATEVRLEQKMPTLLRVYIDGPHGMGKTTTTQLLVALGSRDDIVYVPEPMTYWQVLGASETIANIYTTQHRLDQGEISAGDAAVVMTSAQITMGMPYAVTDAVLAPHIGGEAGSSHAPPPALTLIFDRHPIAALLCYPAARYLMGSMTPQAVLAFVALIPPTLPGTNIVLGALPEDRHIDRLAKRQRPGERLDLAMLAAIRRVYGLLANTVRYLQGGGSWREDWGQLSGTAVPPQGAEPQSNAGPRPHIGDTLFTLFRAPELLAPNGDLYNVFAWALDVLAKRLRPMHVFILDYDQSPAGCRDALLQLTSGMVQTHVTTPGSIPTICDLARTFAREMGEAN
Consider B1, for which, in [8], the Km came to 1 µM.

B2: Thymidine kinase (Macacine herpesvirus 1), A3RLP8 (protein)
chain: MASHAGHQDSPALDRVAGSAGHGDHPSALLRIYVDGPHGLGKTTTAAALAAALGRRDEIEYVPEPMAYWQTLGGPQTITRIFDAQHRLDRGEISASEAAMAMASAQVTMSTPYAVTESAVAPHIGAELPPGHGPHPNIDLTLVFDRHPVASLLCYPAARYLMGSLSLPTVLSFAALLPQTTPGTNLVLGALPEAVHAERLAQRQRPGERLDLAMLSAIRRVYDMLGNAIVYLQRGGSWRADWRRLSPARSAAASGRPARILPRPEIEDTIFALFCAPELLDETGEPYRVFAWTLDLLAERLRPMHLLVLDYNQAPHHCWMDLMEMIPEMTPTLPATPGSMLTLQLLAREFAREMTSTRGGDVGGEGRETR
For B2, the Km is 0.7 µM and 0.65 µM in series [9]; 7.4 µM in [10]. For the same molecule, the Vmax (nmol/hr/microg) in series [9] was 0.2 and 0.15; in series [10], 3.9.

Source of the values: ChEMBL document CHEMBL1145504, “Sensitivity of monkey B virus (Cercopithecine herpesvirus 1) to antiviral drugs: role of thymidine kinase in antiviral activities of substrate analogs and acyclonucleosides” (Antimicrob Agents Chemother, 2007).
